Experimental data taken from patent US8946426B2, “Substituted bicyclic heterocyclic compounds as gamma secretase modulators” (Janssen Pharmaceuticals, Inc., priority 2009, dated 2015).
pIC50: −log10 of the molar value.

Columns and labels:
Format in all cases: cell-based
[1] = test system: Aβtotal; test: Method 2: Aβtotal Alphalisa in supernatant of SKNBE2 cells carrying APP 695-wild type (Table 7c); conditions: Method 2, Alphalisa, overnight incubation
Protocol: (§1) Screening was carried out using SKNBE2 cells carrying the APP 695-wild type, grown in Dulbecco's Modified Eagle's Medium/Nutrient mixture F-12 (DMEM/NUT-mix F-12) (HAM) provided by Invitrogen (cat no. 10371-029) containing 5% Serum/Fe supplemented with 1% non-essential amino acids, 1-glutamine 2 mM, Hepes 15 mM, penicillin 50 U/ml (units/ml) en streptomycin 50 μg/ml. Cells were grown to near confluency.
(§2) The screening was performed using a modification of the assay as described in Citron et al (1997) Nature Medicine 3: 67. Briefly, cells were plated in a 384-well plate at 10^4 cells/well in Ultraculture (Lonza, BE12-725F) supplemented with 1% glutamine (Invitrogen, 25030-024), 1% non-essential amino acid (NEAA), penicillin 50 U/ml en streptomycin 50 μg/ml in the presence of test compound at different test concentrations. The cell/compound mixture was incubated overnight at 37° C., 5% CO2. The next day the media were assayed by two sandwich immuno-assays, for Aβ42 and Aβtotal.
(§3) Aβtotal and Aβ42 concentrations were quantified in the cell supernatant using the Aphalisa technology (Perkin Elmer). Alphalisa is a sandwich assay using biotinylated antibody attached to streptavidin coated donorbeads and antibody conjugated to acceptor beads. In the presence of antigen, the beads come into close proximity. The excitation of the donor beads provokes the release of singlet oxygen molecules that trigger a cascade of energy transfer in the acceptor beads, resulting in light emission. To quantify the amount of Aβ42 in the cell supernatant, monoclonal antibody specific to the C-terminus of Aβ42 (JRF/cAβ42/26) was coupled to the receptor beads and biotinylated antibody specific to the N-terminus of Aβ (JRF/AβN/25) was used to react with the donor beads. To quantify the amount of Aβtotal in the cell supernatant, monoclonal antibody specific to the N-terminus of Aβ (JRF/AβN/25) was coupled to the receptor beads and biotinylated antibody specific to the mid region of Aβ (biotinylated 4G8) was used to react with the donor beads.
(§4) To obtain the values reported in Table 7c, the data were calculated as percentage of the maximum amount of amyloid Beta 42 measured in the absence of the test compound. The sigmoidal dose response curves were analyzed using non-linear regression analysis with percentage of the control plotted against the log concentration of the compound. A 4-parameter equation was used to determine the IC50.

[2] = test system: Aβ42; test: Method 2: Aβ42 Alphalisa in supernatant of SKNBE2 cells carrying APP 695-wild type (Table 7c); conditions: Method 2, Alphalisa, overnight incubation
Protocol: as §1, §2, §3, §4

[3] = test system: Aβ42; test: Method 1: Aβ42 sandwich ELISA in supernatant of SKNBE2 cells carrying APP 695-wild type (Tables 7a, 7b); conditions: Table 7b; averaged IC50; non-linear regression of percentage of control vs log concentration, 4-parameter equation
Protocol: as §1, with “Gibco” for “Invitrogen”, “31330-38)” for “10371-029)”, “acids.” for “acids, 1-glutamine 2 mM, Hepes 15 mM, penicillin 50 U/ml (units/ml) en streptomycin 50 μg/ml.”
The screening was performed using the assay as described in Citron et al (1997) Nature Medicine 3: 67. Briefly, cells were plated in a 96-well plate at about 10^5 cells/ml one day prior to addition of compounds. Compounds were added to the cells in Ultraculture (Lonza, BE12-725F) supplemented with 1% glutamine (Invitrogen, 25030-024) for 18 Hours. The media were assayed by two sandwich ELISAs, for Aβ42 and Aβtotal. Toxicity of the compounds was assayed by WST-1 cell proliferation reagent (Roche, 1 644 807) according to the manufacturer's protocol.
To quantify the amount of Aβ42 in the cell supernatant, commercially available Enzyme-Linked-Immunosorbent-Assay (ELISA) kits were used (Innotest® β-Amyloid(1-42), Innogenetics N.V., Ghent, Belgium). The Aβ42 ELISA was performed essentially according to the manufacturer's protocol. Briefly, the standards (dilutions of synthetic Aβ1-42) were prepared in polypropylene Eppendorf with final concentrations of 8000 down to 3.9 pg/ml (½ dilution step). Samples, standards and blanks (100 μl) were added to the anti-Aβ42-coated plate supplied with the kit (the capture antibody selectively recognizes the C-terminal end of the antigen). The plate was allowed to incubate 3 H at 25° C. in order to allow formation of the antibody-amyloid complex. Following this incubation and subsequent wash steps a selective anti-Aβ-antibody conjugate (biotinylated 3D6) was added and incubated for a minimum of 1 Hour in order to allow formation of the antibody-Amyloid-antibody-complex. After incubation and appropriate wash steps, a Streptavidine-Peroxidase-Conjugate was added, followed 30 minutes later by an addition of 3,3′,5,5′-tetramethylbenzidine (TMB)/peroxide mixture, resulting in the conversion of the substrate into a coloured product. This reaction was stopped by the addition of sulfuric acid (0.9 N) and the colour intensity was measured by means of photometry with an ELISA-reader with a 450 nm filter.
To obtain the values reported in Table 7a, the sigmoidal dose response curves were analysed by computerised curve-fitting, with percent of inhibition plotted against compound concentration. A 4-parameter equation (model 205) in XLfit was used to determine the IC50. The top and the bottom of the curve were fixed to 100 and 0, respectively, and the hill slope was fixed to 1. The IC50 represents the concentration of a compound that is required for inhibiting a biological effect by 50% (Here, it is the concentration where Aβ peptide level is reduced by 50%).
as §4, with “7b,” for “7c,”, “IC50. The values reported in Table 7b are averaged IC50 values.” for “IC50.”

pIC50 [1]	pIC50 [2]	pIC50 [3]	pIC50 ([1]; Homo sapiens)	pIC50 ([2]; Homo sapiens)	Compound
< 5.00	6.72	–	–	–	Cc1cc(-c2ccc(Nc3cccc4c3nc(-c3ccc(F)cc3)n4C)cc2F)ccn1 [Compound 133]
~5.17	7.77	–	–	–	COc1nc(Nc2cccn3c(C)c(-c4ccccc4Cl)nc23)ccc1-c1ccnc(C)c1 [Compound 194]
< 5.00	5.62	–	–	–	COc1cc(Nc2cc(C#N)nc3c2nc(-c2ccc(F)cc2)n3C)ccc1-c1cnc(C)o1 [Compound 189]
< 5.00	6.57	–	–	–	COc1cc(Nc2cc(Cl)cn3cc(C4CCOCC4)nc23)ccc1-c1ocnc1C [Compound 159]
5.44	7.36	–	–	–	COc1cc(Nc2nc(C)cc3c2nc(-c2ccc(F)cc2)n3C)ccc1-c1ccnc(C)c1 [Compound 127]
5.20	5.98	6.78	–	–	COc1cc(Nc2cc(C#N)cn3cc(C)nc23)ccc1-c1ocnc1C [Compound 145]
5.31	7.18	–	–	–	COc1cc(Nc2nc(C)cc3c2nc(-c2ccccc2Cl)n3C)ccc1-c1ocnc1C [Compound 113]
5.25	6.85	–	–	–	COc1cc(Nc2cccc3c2nc(-c2ccc(F)cc2)n3C)ccc1-c1cnn(C)n1 [Compound 73]
–	–	–	5.04	7.41	COc1cc(Nc2cccc3c2nc(-c2ccc(F)cc2)n3C(C)C)ccc1-c1ccnc(C)c1 [Compound 128]
< 5.00	5.73	–	–	–	COc1cc(Nc2nccn3cc(C)nc23)ccc1-c1ocnc1C [Compound 158]
< 5.00	7.66	–	–	–	COc1nc(Nc2cccc3c2nc(-c2ccc(F)cc2)n3C(C)C)ccc1-c1cnn(C)c1 [Compound 69]
< 5.00	5.56	5.73	–	–	COc1cc(Nc2cccc3c2nc(C2CCOCC2)n3C(C)C)ccc1-c1cnc(C)o1 [Compound 93]
< 5.00	6.95	–	–	–	Cc1cc(-c2ccc(Nc3nc(C)cc4c3nc(-c3ccc(F)cc3)n4C)cc2F)ccn1 [Compound 136]
< 5.00	7.74	–	–	–	COc1nc(Nc2cccc3c2nc(-c2ccc(F)cc2)n3C)ccc1-c1cnn(C)c1 [Compound 68]
< 5.00	7.14	–	–	–	Cc1ncoc1-c1ccc(Nc2cccc3c2nc(-c2ccc(Cl)s2)n3C(C)C)cn1 [Compound 116]
< 5.00	7.52	–	–	–	COc1nc(Nc2cccc3c2nc(-c2ccc(F)cc2)n3C(C)C)ccc1-c1ccnc(C)c1 [Compound 130]
5.11	6.79	–	–	–	Cc1cc(-c2ccc(Nc3cccn4c(C)c(-c5ccccc5Cl)nc34)cc2F)ccn1 [Compound 182]
< 5.00	< 5.00	< 5.52	–	–	Cc1ncc(-c2ccc(Nc3nccc4c3nc(CC3CC3)n4C)cc2F)o1 [Compound 66]
–	–	–	5.05	7.38	COc1cc(Nc2cc(C(C)=O)cn3cc(CC(C)C)nc23)ccc1-c1ocnc1C [Compound 156]
5.06	7.08	–	–	–	Cc1cc(-c2ccc(Nc3cccn4c(C)c(-c5ccccc5Cl)nc34)cc2)ccn1 [Compound 183]
–	–	–	< 5.00	< 5.00	Cc1ncc(-c2cnc(Nc3cccc4c3nc(-c3ccc(F)cc3)n4C)nc2)o1 [Compound 188]

pIC50 [1]	pIC50 [2]	pIC50 [3]	pIC50 ([1]; Homo sapiens)	pIC50 ([2]; Homo sapiens)	Compound
5.18	7.22	–	–	–	COc1cc(Nc2cccc3c2nc(-c2ccc(F)cc2)n3C)ccc1-c1ccnc(C)c1 [Compound 139]
< 5.00	7.31	–	–	–	COc1cc(Nc2cccc3c2nc(-c2ccc(F)cc2)n3C(C)C)ccc1-c1oc(C)nc1C [Compound 80]
< 5.00	7.29	–	–	–	COCc1c(-c2ccc(F)cc2)nc2c(Nc3ccc(-c4cnc(C)o4)c(OC)c3)cccn12 [Compound 168]
< 5.00	7.21	–	–	–	Cc1ncc(-c2ccc(Nc3ccnc4c3nc(-c3ccc(F)cc3)n4C)cc2F)o1 [Compound 187]
5.17	5.93	–	–	–	Cc1ccc(F)cc1-c1cn2nc(Cl)cc(Nc3ccc(-c4ocnc4C)nc3)c2n1 [Compound 198]
5.35	5.13	–	–	–	COc1cc(Nc2cccc3c2nc(-c2ccc(F)cc2)n3C)ccc1-c1cn(C)nn1 [Compound 74]
5.15	7.31	–	–	–	Cc1cc(-c2ccc(Nc3cccc4c3nc(-c3ccc(F)cc3)n4C)cc2)ccn1 [Compound 138]
–	–	–	< 5.00	6.26	Cc1ccc(F)cc1-c1cn2nccc(Nc3ccc(-c4ocnc4C)nc3)c2n1 [Compound 197]
5.20	6.91	–	–	–	Cc1cc(-c2ccc(Nc3nc(C)cc4c3nc(-c3ccc(F)cc3)n4C)cc2)ccn1 [Compound 132]
< 5.00	6.46	–	–	–	Cc1cc(-c2ccc(Nc3cccc4c3nc(-c3ccc(F)cc3)n4C)nn2)ccn1 [Compound 135]
–	6.13	6.67	–	–	COc1cc(Nc2cc(C(F)(F)F)cc3c2nc(CCC(F)(F)F)n3C)ccc1-c1ocnc1C [Compound 126]
< 5.00	7.35	–	–	–	COc1cc(Nc2cccn3c(C)c(-c4ccccc4Cl)nc23)ccc1-c1ccnc(C)c1 [Compound 201]
< 5.00	6.71	7.48	–	–	COc1cc(Nc2nc(C)cc3c2nc(-c2ccc(F)cc2)n3C)ccc1-c1ocnc1C [Compound 125]
< 5.00	6.12	–	–	–	Cc1cc(-c2ccc(Nc3cccc4c3nc(-c3ccc(F)cc3)n4C(C)C)cc2)cc(C)n1 [Compound 140]
5.28	7.77	–	–	–	COc1nc(Nc2cccc3c2nc(-c2ccc(F)cc2)n3C)ccc1-c1ccnc(C)c1 [Compound 129]
< 5.00	7.92	–	–	–	Cc1ncc(-c2ccc(Nc3cc(C(C)C)nc4c3nc(-c3ccc(F)cc3)n4C)cn2)o1 [Compound 191]
< 5.00	7.55	–	–	–	Cc1cc(-c2ccc(Nc3cccc4c3nc(-c3ccc(F)cc3)n4C(C)C)cc2)ccn1 [Compound 131]
–	6.33	7.07	–	–	COc1cc(Nc2cc(F)cn3cc(-c4ccc(F)cc4C)nc23)ccc1-c1ocnc1C [Compound 147]
< 5.00	6.95	–	–	–	COCc1ncc(-c2ccc(Nc3cccc4c3nc(-c3ccc(F)cc3)n4C(C)C)cc2)o1 [Compound 84]
< 5.00	7.02	–	–	–	Cc1nc(C)c(-c2ccc(Nc3cccc4c3nc(-c3ccc(F)cc3)n4C(C)C)cc2)o1 [Compound 81]
< 5.00	6.93	–	–	–	Cc1cc(-c2ccc(Nc3cccc4c3nc(-c3ccc(F)cc3)n4C(C)C)cc2F)ccn1 [Compound 137]
